Common to all, as to assay: biochemical
What all share (type): binding

One assay concerns the target T1, FRK (Homo sapiens, UniProt P42685).
T1 construct: the DNA-tagged SH2 domain concentrations used in this study were <0.1 nM; made in house; host or cells: HEK293 (transient transfection; unpurified extract)

A further assay concerns the target T2, PIK3R1(SH2dom.C-term.) (Homo sapiens, UniProt P27986).
T2 construct: SH2dom.C-term. denotes SH2 domain closest to C-terminus of protein; made in house; host or cells: HEK293 (transient transfection, unpurified extract)
To be noted: for remaining activity at 10 µM: read-out: percent of DMSO vehicle control.

In the next assay the target is T3, SRC (Homo sapiens, UniProt P12931).
T3 construct: made in house; host or cells: HEK293 (transient transfection), unpurified extract
T3 sequence (P12931 whole entry): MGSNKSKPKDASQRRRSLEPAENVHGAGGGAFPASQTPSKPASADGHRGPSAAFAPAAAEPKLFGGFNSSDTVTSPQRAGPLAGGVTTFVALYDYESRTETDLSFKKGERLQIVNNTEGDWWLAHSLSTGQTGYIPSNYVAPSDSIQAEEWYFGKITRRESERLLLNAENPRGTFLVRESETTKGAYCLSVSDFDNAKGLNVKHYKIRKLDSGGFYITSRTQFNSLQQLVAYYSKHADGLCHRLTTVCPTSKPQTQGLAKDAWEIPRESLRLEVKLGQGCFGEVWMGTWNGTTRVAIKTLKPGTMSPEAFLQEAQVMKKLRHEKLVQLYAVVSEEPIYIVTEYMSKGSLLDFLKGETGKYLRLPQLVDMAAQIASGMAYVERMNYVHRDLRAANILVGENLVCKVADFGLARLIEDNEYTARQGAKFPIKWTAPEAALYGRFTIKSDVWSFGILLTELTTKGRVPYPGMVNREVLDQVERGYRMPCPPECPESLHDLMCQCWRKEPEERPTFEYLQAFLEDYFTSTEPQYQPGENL
Conditions: for remaining activity at 10 µM: read-out: percent of DMSO vehicle control.

Another assay addresses T4, NCK1 (Homo sapiens, UniProt P16333).
T4 construct: the DNA-tagged SH2 domain concentrations used in this study were <0.1 nM; made in house; host or cells: HEK293 (transient transfection, unpurified extract)
Conditions: for remaining activity at 10 µM: read-out: percent of DMSO vehicle control.

The next assay has as its target T5, SH3BP2 (Homo sapiens, UniProt P78314).
T5 construct: made in house; host or cells: HEK293 (transient transfection), unpurified extract
T5 sequence (P78314 1-561): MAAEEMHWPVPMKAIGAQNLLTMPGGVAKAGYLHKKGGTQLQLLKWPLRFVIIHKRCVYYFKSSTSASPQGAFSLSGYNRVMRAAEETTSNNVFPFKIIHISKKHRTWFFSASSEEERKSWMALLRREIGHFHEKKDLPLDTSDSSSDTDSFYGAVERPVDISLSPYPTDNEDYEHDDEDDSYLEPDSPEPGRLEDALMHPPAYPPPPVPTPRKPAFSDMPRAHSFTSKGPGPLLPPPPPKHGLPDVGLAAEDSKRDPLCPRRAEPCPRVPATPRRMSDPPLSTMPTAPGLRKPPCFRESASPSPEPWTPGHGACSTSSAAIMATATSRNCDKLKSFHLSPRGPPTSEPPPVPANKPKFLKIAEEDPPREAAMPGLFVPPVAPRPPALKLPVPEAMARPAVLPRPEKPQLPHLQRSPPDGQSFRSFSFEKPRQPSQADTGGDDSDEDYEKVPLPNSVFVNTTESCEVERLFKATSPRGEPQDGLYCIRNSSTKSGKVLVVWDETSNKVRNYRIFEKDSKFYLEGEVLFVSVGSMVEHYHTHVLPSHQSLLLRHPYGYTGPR
Conditions: for remaining activity at 10 µM: read-out: percent of DMSO vehicle control.

In a further assay the target is T6, ABL1 (Homo sapiens, UniProt P00519).
T6 construct: the DNA-tagged SH2 domain concentrations used in this study were <0.1 nM; made in house; host or cells: HEK293 (transient transfection; unpurified extract)
T6 sequence (P00519 127-217 limits assumed): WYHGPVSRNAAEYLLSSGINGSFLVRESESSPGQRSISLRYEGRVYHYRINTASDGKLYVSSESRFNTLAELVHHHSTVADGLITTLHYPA

The next assay concerns the target T7, STAP1 (Homo sapiens, UniProt Q9ULZ2).
T7 construct: made in house; host or cells: HEK293 (transient transfection), unpurified extract
T7 sequence (Q9ULZ2 1-295): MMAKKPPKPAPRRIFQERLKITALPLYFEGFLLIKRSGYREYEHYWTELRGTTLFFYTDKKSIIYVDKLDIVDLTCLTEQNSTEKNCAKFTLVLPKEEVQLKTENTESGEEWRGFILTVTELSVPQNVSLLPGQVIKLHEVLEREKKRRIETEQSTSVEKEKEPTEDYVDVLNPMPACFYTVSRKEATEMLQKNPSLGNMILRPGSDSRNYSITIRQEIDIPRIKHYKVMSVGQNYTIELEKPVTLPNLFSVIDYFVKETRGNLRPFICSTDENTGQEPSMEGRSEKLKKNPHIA
Conditions: for remaining activity at 10 µM: read-out: percent of DMSO vehicle control.

A further assay has as its target T8, LYN (Homo sapiens, UniProt P07948).
T8 construct: the DNA-tagged SH2 domain concentrations used in this study were <0.1 nM; made in house; host or cells: HEK293 (transient transfection, unpurified extract)
Conditions: for remaining activity at 10 µM: read-out: percent of DMSO vehicle control.

In another assay the target is T9, VAV2 (Homo sapiens, UniProt P52735).
T9 construct: made in house; host or cells: HEK293 (transient transfection), unpurified extract
T9 sequence (P52735 1-878): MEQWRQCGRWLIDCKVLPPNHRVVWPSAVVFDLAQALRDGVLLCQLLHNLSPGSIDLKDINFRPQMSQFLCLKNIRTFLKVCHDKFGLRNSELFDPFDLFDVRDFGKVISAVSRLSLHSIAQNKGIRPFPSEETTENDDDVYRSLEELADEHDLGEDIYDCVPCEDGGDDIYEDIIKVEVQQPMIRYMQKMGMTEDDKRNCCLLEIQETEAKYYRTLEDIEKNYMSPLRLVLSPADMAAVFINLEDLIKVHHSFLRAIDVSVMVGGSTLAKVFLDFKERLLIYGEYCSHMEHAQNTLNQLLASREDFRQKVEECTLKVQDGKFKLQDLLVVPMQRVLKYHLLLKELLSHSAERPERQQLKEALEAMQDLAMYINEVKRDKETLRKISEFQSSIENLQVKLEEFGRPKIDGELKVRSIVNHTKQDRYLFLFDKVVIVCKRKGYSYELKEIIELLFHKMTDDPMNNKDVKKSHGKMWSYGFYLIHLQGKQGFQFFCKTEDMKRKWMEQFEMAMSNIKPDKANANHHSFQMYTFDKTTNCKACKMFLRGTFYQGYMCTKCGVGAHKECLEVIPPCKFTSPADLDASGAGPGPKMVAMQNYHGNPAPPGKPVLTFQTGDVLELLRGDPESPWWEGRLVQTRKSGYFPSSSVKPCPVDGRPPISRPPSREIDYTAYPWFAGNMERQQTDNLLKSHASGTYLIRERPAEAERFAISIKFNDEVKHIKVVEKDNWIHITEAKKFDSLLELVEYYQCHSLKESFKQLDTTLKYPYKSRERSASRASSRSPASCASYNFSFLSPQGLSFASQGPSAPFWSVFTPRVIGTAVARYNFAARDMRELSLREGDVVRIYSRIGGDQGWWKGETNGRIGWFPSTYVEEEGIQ
To be noted: for remaining activity at 10 µM: read-out: percent of DMSO vehicle control.

The target in another assay is T10, APS (SH2B2) (Homo sapiens, UniProt O14492).
T10 construct: the DNA-tagged SH2 domain concentrations used in this study were <0.1 nM; made in house; host or cells: HEK293 (transient transfection; unpurified extract)
T10 sequence (O14492 417-515 limits assumed): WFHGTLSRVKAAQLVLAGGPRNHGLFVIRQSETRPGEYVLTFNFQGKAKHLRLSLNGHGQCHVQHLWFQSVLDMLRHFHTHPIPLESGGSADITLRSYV

In the next assay the target is T11, RASA1(SH2dom.N-term.) (Homo sapiens, UniProt P20936).
T11 construct: SH2dom.N-term. denotes SH2 domain closest to N-terminus of protein; made in house; host or cells: HEK293 (transient transfection), unpurified extract
T11 sequence (P20936 181-272 limits assumed): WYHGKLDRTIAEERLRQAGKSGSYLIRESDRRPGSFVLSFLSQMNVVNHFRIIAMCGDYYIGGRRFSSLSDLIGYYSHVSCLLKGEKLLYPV
To be noted: for remaining activity at 10 µM: read-out: percent of DMSO vehicle control.

Setting [1] is: read-out: percent of DMSO vehicle control.
The mark [2] stands for this setting: primary screen, 10 μM, read-out: percent of DMSO vehicle control.

Where two headings read alike, the source gives them in different places. Non-standard residues stand in square brackets, D forms with d. Residues, ends and D or L forms follow the SMILES beside them. pY = N[C@@H](Cc1ccc(OP(=O)(O)O)cc1)C(=O)O

T2 sequence (P27986 624-718 limits assumed): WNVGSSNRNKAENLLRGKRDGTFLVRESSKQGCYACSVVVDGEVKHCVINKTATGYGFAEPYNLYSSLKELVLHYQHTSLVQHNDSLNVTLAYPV
T1 sequence (P42685 116-208 limits assumed): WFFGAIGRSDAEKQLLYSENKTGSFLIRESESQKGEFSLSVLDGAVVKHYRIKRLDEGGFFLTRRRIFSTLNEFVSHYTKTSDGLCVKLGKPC
T8 sequence (P07948 129-226 limits assumed): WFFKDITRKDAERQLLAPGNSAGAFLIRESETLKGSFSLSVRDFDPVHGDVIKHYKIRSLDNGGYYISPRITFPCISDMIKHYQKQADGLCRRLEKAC

As for `NC(=O)CC[C@H](NC(=O)[C@@H]1CC[C@@H]2CCN(C(=O)CCCCCC#Cc3cccc4c3CN(C3CCC(=O)NC3=O)C4=O)C[C@H](NC(=O)c3cc4cc(C(F)(F)P(=O)(O)O)ccc4[nH]3)C(=O)N21)C(=O)NC(c1ccccc1)c1ccccc1` (some centres unmarked) [SD-36], the figures for the percent of DMSO vehicle control at 10 µM at FRK (setting [1]) and at APS (SH2B2) (setting [1]) were 155 ± 4.5% and 140 ± 6.1%, respectively. In addition, the remaining activity at 10 µM on PIK3R1(SH2dom.C-term.) was 94.6 ± 6.5%; at SRC it was 81.4 ± 1.5%; on NCK1, 106%; on SH3BP2 it was 91.5 ± 19.4%; at STAP1 it was 79.9 ± 5.8%; at LYN, 90.9 ± 2.3%. Also, the remaining activity at 10 µM is 117 ± 1.5% on VAV2 and 64.7 ± 0.3% on RASA1(SH2dom.N-term.). For the same compound, at ABL1 (setting [1]), the percent of DMSO control binding at 10 µM stood at 87.4 ± 24%.
With `CC(C)(C)[C@H](NC(=O)/C=C/c1ccc(OP(=O)(O)O)cc1)C(=O)N1CCC[C@H]1C(=O)N(c1ccccc1)c1ccc(I)cc1` [STAT6-IN-3], the remaining activity at 10 µM on FRK (setting [2]) was 59.9 ± 42.5%; on PIK3R1(SH2dom.C-term.) (primary screen, 10 μM), 32.6 ± 4.4%; on SRC (primary screen, 10 μM) it was 67 ± 21%; at NCK1 (primary screen, 10 μM), 85.1 ± 10.2%; on SH3BP2 (primary screen, 10 μM), 92.8 ± 2.7%; at ABL1 (setting [2]), 0%. The remaining activity at 10 µM at STAP1 (primary screen, 10 μM) was determined as 76.9 ± 9.2%; at LYN (primary screen, 10 μM), 82.3 ± 17.1%; on VAV2 (primary screen, 10 μM) it was 87.5 ± 11.3%; at APS (SH2B2) (setting [2]) it was 66.4 ± 17.9%; on RASA1(SH2dom.N-term.) (primary screen, 10 μM), 81.7 ± 8.5%. In addition, the Kd at PIK3R1(SH2dom.C-term.) (dose-response, read-out: KD) amounted to 3 ± 0.73 µM. In addition, the KD entry at ABL1 (dose-response) is listed as “No Hit”.
Regarding `CC[C@H](C)[C@H](NC(=O)[C@H](CCC(=O)O)NC(=O)[C@H](CCC(=O)O)NC(=O)[C@H](Cc1ccc(OP(=O)(O)O)cc1)NC(C)=O)C(=O)N[C@@H](CCC(=O)O)C(N)=O` [Ac-pYEEIE-NH2] (Ac-[pY]EEIE-NH2), the “percent of DMSO vehicle control” value is 82.5% at FRK (primary screen, 10 μM); 35.8±9.3% on PIK3R1(SH2dom.C-term.) (primary screen, 10 μM); 68.6±4.6% at SRC (primary screen, 10 μM); 90.1% on NCK1 (primary screen, 10 μM); 90.0±2.1% on SH3BP2 (primary screen, 10 μM); 106.1% on ABL1 (primary screen, 10 μM). The “percent of DMSO vehicle control” value on STAP1 (primary screen, 10 μM) is 101.0%; on LYN (primary screen, 10 μM), 38.1±2.4%; on VAV2 (primary screen, 10 μM), 49.5±2.8%; on APS (SH2B2) (primary screen, 10 μM), 121.8%; on RASA1(SH2dom.N-term.) (primary screen, 10 μM), 121.2%.

(Values after paper PMC12951562, “SH2scan: Mapping SH2 Domain-Ligand Binding Selectivity for Inhibitors and Degraders” (Journal of Medicinal Chemistry, 2026).)
